In PubChem BioAssay AID248 (DTP/NCI, 2004):
“And” between values parts separate entries of the source, which are not always exact repeats. Equal entries are not always repeated. Toxic doses and inconclusive results are not listed.

System: L1210 leukemia ip in BDF1 mice, survival T/C
Experiment: NCI In Vivo Anticancer Drug Screen. Data for tumor model L1210 Leukemia (intraperitoneal) in B6D2F1 (BDF1) mice
Conditions: endpoint: mean survival time, higher = longer survival
Outline: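 Each compound was tested against a transplantable tumor grown in mice. The endpoint was survival, with treated animals benchmarked against vehicle controls as a simple ratio.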

[1] = dose: 100.0 mg/kg/injection, schedule: Q04DX003 (ip), vehicle: Klucel (hydroxypropylcellulose) (HPC)
[2] = dose: 200.0 mg/kg/injection, schedule: Q04DX003 (ip), vehicle: Klucel (hydroxypropylcellulose) (HPC)
[3] = dose: 100.0 mg/kg/injection, schedule: Q01DX001 (ip), vehicle: saline
[4] = dose: 200.0 mg/kg/injection, schedule: Q01DX001 (ip), vehicle: saline
[5] = dose: 400.0 mg/kg/injection, schedule: Q01DX001 (ip), vehicle: saline
[6] = dose: 100.0 mg/kg/injection, schedule: Q01DX009 (ip), vehicle: Klucel (hydroxypropylcellulose) (HPC)
[7] = dose: 200.0 mg/kg/injection, schedule: Q01DX009 (ip), vehicle: Klucel (hydroxypropylcellulose) (HPC)
[8] = dose: 25.0 mg/kg/injection, schedule: Q04DX003 (ip), vehicle: Klucel (hydroxypropylcellulose) (HPC)
[9] = dose: 50.0 mg/kg/injection, schedule: Q04DX003 (ip), vehicle: Klucel (hydroxypropylcellulose) (HPC)
[10] = dose: 100.0 mg/kg/injection, schedule: Q04DX003 (ip), vehicle: saline
[11] = dose: 200.0 mg/kg/injection, schedule: Q04DX003 (ip), vehicle: saline
[12] = dose: 400.0 mg/kg/injection, schedule: Q04DX003 (ip), vehicle: saline
[13] = dose: 100.0 mg/kg/injection, schedule: Q04DX003 (ip), vehicle: saline with Tween-80

For `Cc1noc(C)c1C=O`, the T/C [1] was 102 % of control and the T/C [2] was 95 % of control.
With `[Cu+2].[NH-]C1C(Cl)CCC2C(Cl)CC[N-]C12` (stereo not drawn) the T/C (dose: 6.0 mg/kg/injection, schedule: Q04DX003 (ip), vehicle: Klucel (hydroxypropylcellulose) (HPC)) was 91 % of control, the T/C (dose: 12.0 mg/kg/injection, schedule: Q01DX001 (ip), vehicle: other) was 108 % of control and the T/C (dose: 12.0 mg/kg/injection, schedule: Q04DX003 (ip), vehicle: Klucel (hydroxypropylcellulose) (HPC)) was 102 % of control. For the same compound, the T/C (dose: 25.0 mg/kg/injection, schedule: Q01DX001 (ip), vehicle: other) was 108 % of control.
For `N#CC(C#N)=Cc1cc(Cl)ccc1O`, the T/C [3] was 96 % of control and the T/C [4] was 96 % of control.
With `O=c1[nH]nc(SCc2ccccc2)c(=S)[nH]1` the T/C (dose: 100.0 mg/kg/injection, schedule: Q01DX001 (ip), vehicle: other) was 119 % of control, the T/C (dose: 177.0 mg/kg/injection, schedule: Q01DX001 (ip), vehicle: other) was 104 % of control and the T/C (dose: 200.0 mg/kg/injection, schedule: Q01DX001 (ip), vehicle: other) was 156 % of control. For the same compound, the T/C (dose: 200.0 mg/kg/injection, schedule: Q01DX005 (ip), vehicle: other) was 92 % of control, the T/C (dose: 266.0 mg/kg/injection, schedule: Q01DX001 (ip), vehicle: other) was 101 % of control and the T/C (dose: 300.0 mg/kg/injection, schedule: Q01DX005 (ip), vehicle: other) was 95 % of control.
With `CC(=O)OCC1OC(n2cnc(N)c2C#N)C(OC(C)=O)C1OC(C)=O` (stereo not drawn) the T/C (dose: 50.0 mg/kg/injection, schedule: Q01DX001 (ip), vehicle: saline) was 98 % of control, the T/C [3] was 102 % of control and the T/C [4] was 102 % of control. The T/C [5] was 102 % of control.
For `Cc1cc(S(=O)(=O)F)ccc1NC(=O)NCc1ccc([N+](=O)[O-])cc1`, the T/C [6] was 100 % of control and the T/C [7] was 106 % of control.
`O=C(O)CCCCCN1C(=O)C2OC3C(=O)N(CCCCCC(=O)O)C(=O)C3C2C1=O` (stereo not drawn) was tested, and the T/C (dose: 100.0 mg/kg/injection, schedule: Q04DX003 (ip), vehicle: carboxymethylcellulose (CMC)) was 95 % of control, the T/C (dose: 200.0 mg/kg/injection, schedule: Q04DX003 (ip), vehicle: carboxymethylcellulose (CMC)) was 95 % of control and the T/C (dose: 400.0 mg/kg/injection, schedule: Q04DX003 (ip), vehicle: carboxymethylcellulose (CMC)) was 97 % of control.
In the case of `c1ccc(NC2=NCCN2)nc1`, the T/C (dose: 75.0 mg/kg/injection, schedule: Q01DX001 (ip), vehicle: saline) is reported as 93 % of control.
For `CN(NC(=O)c1ccccc1)C(=O)c1ccccc1`, the T/C (dose: 12.5 mg/kg/injection, schedule: Q04DX003 (ip), vehicle: Klucel (hydroxypropylcellulose) (HPC)) was 106 % of control, the T/C [8] was 104 % of control and the T/C [9] was 103 % of control. For the same compound, the T/C [1] was 108 % of control, the T/C (dose: 130.0 mg/kg/injection, schedule: Q04DX003 (ip), vehicle: Klucel (hydroxypropylcellulose) (HPC)) was 100 % of control and the T/C [2] was 103 % of control. For the same compound, the T/C (dose: 300.0 mg/kg/injection, schedule: Q04DX003 (ip), vehicle: Klucel (hydroxypropylcellulose) (HPC)) was 113 % of control.
`O=C(NCCCl)N(c1ccccc1)c1cccc(C(F)(F)F)c1` was tested, and the T/C (dose: 100.0 mg/kg/injection, schedule: Q01DX005 (ip), vehicle: Klucel (hydroxypropylcellulose) (HPC)) was 102 % of control, the T/C [6] was 98 % of control and the T/C (dose: 100.0 mg/kg/injection, schedule: Q04DX002 (ip), vehicle: Klucel (hydroxypropylcellulose) (HPC)) was 114 % of control. For the same compound, the T/C (dose: 200.0 mg/kg/injection, schedule: Q01DX005 (ip), vehicle: Klucel (hydroxypropylcellulose) (HPC)) was 91 % of control, the T/C [7] was 98 % of control and the T/C (dose: 200.0 mg/kg/injection, schedule: Q04DX002 (ip), vehicle: Klucel (hydroxypropylcellulose) (HPC)) was 96 % of control. For the same compound, the T/C (dose: 400.0 mg/kg/injection, schedule: Q01DX005 (ip), vehicle: Klucel (hydroxypropylcellulose) (HPC)) was 94 % of control, the T/C (dose: 400.0 mg/kg/injection, schedule: Q01DX009 (ip), vehicle: Klucel (hydroxypropylcellulose) (HPC)) was 98 % of control and the T/C (dose: 400.0 mg/kg/injection, schedule: Q04DX002 (ip), vehicle: Klucel (hydroxypropylcellulose) (HPC)) was 104 % of control.
`C=CCCCCCCCCC(=O)OC` was tested, and the T/C [3] was 100 % of control, the T/C [4] was 96 % of control and the T/C [5] was 100 % of control.
For `CC1CCCC(NC(=O)N(CCCl)N=O)C1` (stereo not drawn), the T/C (dose: 8.0 mg/kg/injection, schedule: Q01DX001 (ip), vehicle: other) was 109 % of control, the T/C (dose: 27.0 mg/kg/injection, schedule: Q01DX001 (ip), vehicle: other) was 307 % of control and the T/C (dose: 31.0 mg/kg/injection, schedule: Q01DX001 (ip), vehicle: other) was 170 % of control. For the same compound, the T/C (dose: 35.0 mg/kg/injection, schedule: Q01DX001 (ip), vehicle: other) was 190 % of control, the T/C (dose: 42.0 mg/kg/injection, schedule: Q01DX001 (ip), vehicle: other) was 348 % of control and the T/C (dose: 62.0 mg/kg/injection, schedule: Q01DX001 (ip), vehicle: other) was 275 % of control and 361 % of control. The T/C (dose: 71.0 mg/kg/injection, schedule: Q01DX001 (ip), vehicle: other) was 301 % of control, the T/C (dose: 93.0 mg/kg/injection, schedule: Q01DX001 (ip), vehicle: other) was 307 % of control and the T/C (dose: 125.0 mg/kg/injection, schedule: Q01DX001 (ip), vehicle: other) was 86 % of control. The T/C (dose: 286.0 mg/kg/injection, schedule: Q01DX001 (ip), vehicle: other) was 88 % of control.
For `CN(C)c1ccc(NC(=O)NCCCl)cc1`, the T/C [1] was 106 % of control and the T/C [2] was 103 % of control.
For `CCCCN1CC1CC` (stereo not drawn), the T/C [8] was 105 % of control, the T/C [9] was 95 % of control and the T/C (dose: 100.0 mg/kg/injection, schedule: Q01DX001 (ip), vehicle: Klucel (hydroxypropylcellulose) (HPC)) was 108 % of control. For the same compound, the T/C [1] was 103 % of control.
In the case of `N#CNC(=S)S`, the T/C [10] is reported as 105 % of control, the T/C [11] is reported as 93 % of control and the T/C [12] is reported as 104 % of control.
In the case of `CC(=O)NCC1CCCO1` (stereo not drawn), the T/C (dose: 75.0 mg/kg/injection, schedule: Q01DX009 (ip), vehicle: saline) is reported as 112 % of control, the T/C [10] is reported as 105 % of control and the T/C (dose: 150.0 mg/kg/injection, schedule: Q01DX009 (ip), vehicle: saline) is reported as 103 % of control. For the same compound, the T/C [11] was 108 % of control, the T/C (dose: 300.0 mg/kg/injection, schedule: Q01DX009 (ip), vehicle: saline) was 103 % of control and the T/C [12] was 106 % of control.
For `CC(=O)Oc1cc2c(OC(C)=O)c(-c3c(C)cc4c(C(C)C)c(OC(C)=O)c(OC(C)=O)cc4c3OC(C)=O)c(C)cc2c(C(C)C)c1OC(C)=O`, the T/C [13] was 86 % of control.
In the case of `O=C(O)c1ccc(N2C(=O)C=CC2=O)cc1` (tested in a mixture with another compound), the T/C (dose: 12.5 mg/kg/injection, schedule: Q01DX009 (ip), vehicle: acetone) is reported as 90 % of control.
In the case of `CC(=O)NNc1ccc([N+](=O)[O-])cc1`, the T/C [1] is reported as 89 % of control, the T/C [2] is reported as 94 % of control and the T/C (dose: 400.0 mg/kg/injection, schedule: Q04DX003 (ip), vehicle: Klucel (hydroxypropylcellulose) (HPC)) is reported as 89 % of control.
With `O=C(O)CC(NCc1ccccc1)C(=O)O` (stereo not drawn) the T/C (dose: 100.0 mg/kg/injection, schedule: Q01DX009 (ip), vehicle: saline with Tween-80) was 93 % of control, the T/C (dose: 200.0 mg/kg/injection, schedule: Q01DX009 (ip), vehicle: saline with Tween-80) was 91 % of control and the T/C (dose: 400.0 mg/kg/injection, schedule: Q01DX009 (ip), vehicle: saline with Tween-80) was 93 % of control.
In the case of `Cc1cc(C)c(C)c(C(=O)O)c1C`, the T/C (dose: 100.0 mg/kg/injection, schedule: Q01DX001 (ip), vehicle: acetone) is reported as 98 % of control, the T/C (dose: 100.0 mg/kg/injection, schedule: Q01DX009 (ip), vehicle: acetone) is reported as 101 % of control and the T/C [10] is reported as 88 % of control. For the same compound, the T/C (dose: 200.0 mg/kg/injection, schedule: Q01DX001 (ip), vehicle: acetone) was 89 % of control, the T/C (dose: 200.0 mg/kg/injection, schedule: Q01DX009 (ip), vehicle: acetone) was 106 % of control and the T/C [11] was 102 % of control. For the same compound, the T/C (dose: 400.0 mg/kg/injection, schedule: Q01DX001 (ip), vehicle: acetone) was 94 % of control, the T/C (dose: 400.0 mg/kg/injection, schedule: Q01DX009 (ip), vehicle: acetone) was 105 % of control and the T/C [12] was 112 % of control.
For `NC(=O)c1cc(O)c(Br)c(O)c1`, the T/C (dose: 100.0 mg/kg/injection, schedule: Q01DX009 (ip), vehicle: other) was 86 % of control, the T/C [10] was 98 % of control and the T/C (dose: 200.0 mg/kg/injection, schedule: Q01DX009 (ip), vehicle: other) was 100 % of control. For the same compound, the T/C [11] was 109 % of control, the T/C (dose: 400.0 mg/kg/injection, schedule: Q01DX009 (ip), vehicle: other) was 93 % of control and the T/C [12] was 98 % of control.
In the case of `NC(=O)c1ccc(OC(F)(F)C(F)Cl)cc1OC(F)(F)C(F)Cl` (stereo not drawn), the T/C [13] is reported as 98 % of control and the T/C (dose: 400.0 mg/kg/injection, schedule: Q04DX003 (ip), vehicle: saline with Tween-80) is reported as 102 % of control.
